Data reported in patent publication EP4571315A1, “DIAGNOSTIC USE OF HIGHLY TOXIC AMYLOID OLIGOMER” (Shen Zhen Wisdom Biopharm Co., Ltd., priority 2022, dated 2024).

Test system: N2a cells
Experiment: MTT assay, cytotoxicity to N2a cells
Type: cell-based
Settings: for cell death: 0.5 nM; for IC50: 72 hours, read-out: half-inhibitory concentration (IC50) on cell viability
Description: This experiment mainly used the MTT assay to detect the toxicity of Aβ aggregates to neurons. The specific procedure was as follows: N2a cells were cultured in DMEM medium containing 10% FBS and 1% penicillin/streptomycin. The cells in the culture dish were digested with trypsin, centrifuged, and resuspended in the medium, and then inoculated in a 96-well plate, with about 5,000 cells/100 µL medium per well. After 12 hours, the cells were treated with a series of concentration gradients of sApo*3F and sAβos, and the same volume of solvent was added to the cells as a control. After 72 hours, 25 µL 5 mg/mL MTT was added to each well. After further culture at 37 °C for 3 hours, the medium was aspirated and 150 µL DMSO was added. The absorbance at 570 nm and 630 nm was measured using an MD-M5 microplate reader. The average value of six replicate wells was used for each sample and control, and each experiment was repeated three times. Cell viability was calculated by dividing the absorbance (background corrected) of the sample well with the absorbance (background corrected) of the well added with solvent.

Substance	cell death	cytotoxicity / neurotoxicity (200 nM) [%]	IC50 (MTT) [nM]	difference between the two IC50s (sAβos before immunoprecipitation vs sApo*3F) (MTT) [fold]
sAβos: Aβos prepared in vitro, 10 µM Aβ, 2-day incubation, before immunoprecipitation	no substantial neurotoxic effect	70	~63.3	
sApo*3F: Aβo*3F prepared in vitro: Aβ monomers incubated 2 days, immunoprecipitated with the antibody 3F	66%		~0.186	340
